Data published in US20230094753A1, “NANOSTRUCTURE LIPID CARRIER DELIVERY SYSTEM, COMPOSITION, AND METHODS” (priority 2020, published 2023).

Assay: CBD solubility in lipid excipients (about 0.345 g CBD exposed to 10 ml lipid)
Type: physicochemical
Settings: approx. 0.345 g CBD in 10 ml
Protocol: Approximately 0.345 g of CBD was exposed to 10 ml of the listed lipid and solubility was assessed.

Question: For C=C(C)[C@@H]1CCC(C)=C[C@H]1c1c(O)cc(CCCCC)cc1O [CBD, cannabidiol], which SOLUBILITY (solvent 1: Apricot Kernel Oil PEG-6 Esters) is on record?
Answer: Medium CBD Solubility

Question: And the SOLUBILITY (solvent 2: Corn Oil PEG-6 Ester)?
Answer: Medium CBD Solubility

Question: And the SOLUBILITY (solvent 3: Ethoxydiglycol)?
Answer: Stability Problematic

Question: What about the SOLUBILITY (solvent 4: Glycerine soja (Soyean) oil (and) Glyceryl Distearate (and) Polyglyceryl-3 Dioleate) of the same molecule?
Answer: Medium CBD Solubility

Question: What about the SOLUBILITY (solvent 5: Glyceryl Linoleate) of the same molecule?
Answer: Bad CBD Solubility

Question: What about the SOLUBILITY (solvent 6: Glyceryl Oleate) of the same molecule?
Answer: Bad CBD Solubility

Question: What about the SOLUBILITY (solvent 7: PEG-8 Caprylic/Capric Glycerides) of the same molecule?
Answer: Stability Problematic

Question: And the SOLUBILITY (solvent 8: Polyglyceryl-3-diolate)?
Answer: Bad CBD Solubility

Question: And the SOLUBILITY (solvent 9: Propylene Glycol Caprate)?
Answer: Good CBD Solubility

Question: And the SOLUBILITY (solvent 10: Propylene Glycol Laurate)?
Answer: Medium CBD Solubility

Question: What about the SOLUBILITY (solvent 13: PEG-8) of the same molecule?
Answer: Medium CBD Solubility

Question: What about the SOLUBILITY (solvent 18: Caprylic/Capric Triglyceride) of the same molecule?
Answer: Medium CBD Solubility

Question: And the SOLUBILITY (solvent 19: PEG-8 Carylic/Capric Glycerides)?
Answer: Good CBD Solubility

Question: What about the SOLUBILITY (solvent 20: Glyceryl Caprylate/Caprate) of the same molecule?
Answer: Medium CBD Solubility

Question: What about the SOLUBILITY (solvent 21: Propylene Glycol Monocaprylate) of the same molecule?
Answer: Good CBD Solubility

Question: And the SOLUBILITY (solvent 22: Olea Europaea (Olive) Oil)?
Answer: Bad CBD Solubility

Question: What about the SOLUBILITY (solvent 23: Glycine Soja (Soybean) Oil) of the same molecule?
Answer: Medium CBD Solubility
